The values that follow come from patent US10188634B2, “3-(3H-imidazo[4,5-C]pyridin-2-yl)-1 H-pyrazolo[4,3-B]pyridines and therapeutic uses thereof” (Samumed, LLC, priority 2015, dated 2019).

The assay concerns LL29 cells (primary human fibroblasts derived from IPF patients) treated with TGF-β1, α-smooth muscle actin. Description: Inhibition of the fibrotic process: αSMA staining in TGF-β1 treated primary human fibroblasts from IPF patients (LL29 cells). In kind it is cell-based. To be noted: Fibroblast, 96 h; for EC50: LL29 cells treated with TGF-β1 (20 ng/mL), 4 days; for inhibition at 10 µM: LL29 cells treated with TGF-β1, 4 days, read-out: percent inhibition in brackets (given for EC50 >10 μM). The source says: Representative compounds were screened using primary human fibroblasts (derived from IPF patients) treated with TGF-β1 to determine their ability to inhibit the fibrotic process.
Human Fibroblast Cell Culture: Primary human fibroblasts derived from IPF patients (LL29 cells) [^1Xiaoqiu Liu, et.al., “Fibrotic Lung Fibroblasts Show Blunted Inhibition by cAMP Due to Deficient cAMP Response Element-Binding Protein Phosphorylation”, Journal of Pharmacology and Experimental Therapeutics (2005), 315(2), 678-687; ^2Watts, K. L., et.al., “RhoA signaling modulates cyclin D1 expression in human lung fibroblasts; implications for idiopathic pulmonary fibrosis”, Respiratory Research (2006), 7(1), 88] were obtained from American Type Culture Collection (ATCC) and expanded in F12 medium supplemented with 15% Fetal Bovine Serum and Penicillin/Streptomycin.
Compound Screening: Each compound was dissolved in DMSO as a 10 mM stock and used to prepare compound source plates. […] LL29 cells are plated at 1,500 cells/well in 80 μL/well F12 medium supplemented with 1% Fetal Bovine Serum. One hour after addition of the cells, TGF-β1 (Peprotech; 20 ng/mL) was added to the plates to induce fibrosis (ref. 1 and 2 above). Wells treated with TGF-β1 and containing DMSO were used as controls. Cells were incubated at 37° C. and 5% CO2 for 4 days. Following incubation for 4 days, SYTOX green nucleic acid stain (Life Technologies [Thermo Fisher Scientific]) was added to the wells at a final concentration of 1 μM and incubated at room temperature for 30 min. Cells were then fixed using 4% formaldehyde (Electron Microscopy Sciences), washed 3 times with PBS followed by blocking and permeabilization using 3% Bovine Serum Albumin (BSA; Sigma) and 0.3% Triton X-100 (Sigma) in PBS. Cells were then stained with antibody specific to α-smooth muscle actin (αSMA; Abcam) (ref. 1 and 2 above) in 3% Bovine Serum Albumin (BSA; Sigma) and 0.3% Triton X-100 (Sigma) in PBS, and incubated overnight at 4° C. Cells were then washed 3 times with PBS, followed by incubation with Alexa Flor-647 conjugated secondary antibody (Life Technologies [Thermo Fisher Scientific]) and DAPI at room temperature for 1 hour. Cells were then washed 3 times with PBS and plates were sealed for imaging. αSMA staining was imaged by excitation at 630 nm and emission at 665 nm and quantified using the Compartmental Analysis program on the CellInsight CX5 (Thermo Scientific). Dead or apoptotic cells were excluded from analysis based on positive SYTOX green staining. % of total cells positive for αSMA were counted in each well and normalized to the average of 11 wells treated with TGF-β1 on the same plate using Dotmatics' Studies Software. The normalized averages (fold change over untreated) of 3 replicate wells for each compound concentration were used to create dose-responses curves and EC50 values were calculated using non-linear regression curve fit in the Dotmatics' Studies Software. For EC50 of >10 μM, the percent inhibition at 10 μM is provided.

For the compound `CC(C)(C)CC(=O)Nc1cncc(-c2ccc3[nH]nc(-c4nc5c(-c6ccccc6F)cncc5[nH]4)c3n2)c1` [Compound 72, N-(5-(3-(7-(2-fluorophenyl)-3H-imidazo[4,5-c]pyridin-2-yl)-1H-pyrazolo[4,3-b]pyridin-5-yl)pyridin-3-yl)-3,3-dimethylbutanamide], the concentration for a half-maximal effect (EC50) was > 10 µM and the inhibition at 10 µM worked out at 0%.

The compound `O=C(Nc1cncc(-c2ccc3[nH]nc(-c4nc5c(-c6ccccc6F)cncc5[nH]4)c3n2)c1)C1CCCC1` [Compound 78, N-(5-(3-(7-(2-Fluorophenyl)-3H-imidazo[4,5-c]pyridin-2-yl)-1H-pyrazolo[4,3-b]pyridin-5-yl)pyridin-3-yl)cyclopentanecarboxamide] gave an EC50 of 9.08 µM.

Regarding `c1ccc(CNCc2cncc(-c3ccc4[nH]nc(-c5nc6c(-c7cccnc7)cncc6[nH]5)c4n3)c2)cc1` [Compound 108, N-Benzyl-1-(5-(3-(7-(pyridin-3-yl)-3H-imidazo[4,5-c]pyridin-2-yl)-1H-pyrazolo[4,3-b]pyridin-5-yl)pyridin-3-yl)methanamine], the half-maximal effective concentration (EC50) is > 10 µM and the inhibition at 10 µM came out at 0%.

On to `c1cc(-c2ccc3[nH]nc(-c4nc5c(-c6ccncc6)cncc5[nH]4)c3n2)ccn1` [Compound 130, 5-(pyridin-4-yl)-3-(7-(pyridin-4-yl)-3H-imidazo[4,5-c]pyridin-2-yl)-1H-pyrazolo[4,3-b]pyridine], for which the EC50 was > 10 µM and the inhibition at 10 µM was found to be 11%.

Consider `O=C(Nc1cncc(-c2ccc3[nH]nc(-c4nc5c(-c6ccncc6)cncc5[nH]4)c3n2)c1)C1CCCCC1` [Compound 135, N-(5-(3-(7-(pyridin-4-yl)-3H-imidazo[4,5-c]pyridin-2-yl)-1H-pyrazolo[4,3-b]pyridin-5-yl)pyridin-3-yl)cyclohexanecarboxamide], for which the concentration giving a half-maximal response (EC50) is > 10 µM and the inhibition at 10 µM amounted to 0%.

`O=C(Nc1cncc(-c2ccc3[nH]nc(-c4nc5c(-c6ccccn6)cncc5[nH]4)c3n2)c1)c1ccccc1` [Compound 151, N-(5-(3-(7-(Pyridin-2-yl)-3H-imidazo[4,5-c]pyridin-2-yl)-1H-pyrazolo[4,3-b]pyridin-5-yl)pyridin-3-yl)benzamide]: the EC50 is > 10 µM and the inhibition at 10 µM amounted to 38.8%.

Regarding `CN1CCN(c2cncc3[nH]c(-c4n[nH]c5ccc(-c6cncc(NC(=O)C7CCCC7)c6)nc45)nc23)CC1` [Compound 246, N-(5-(3-(7-(4-Methylpiperazin-1-yl)-3H-imidazo[4,5-c]pyridin-2-yl)-1H-pyrazolo[4,3-b]pyridin-5-yl)pyridin-3-yl)cyclopentanecarboxamide], the concentration for a half-maximal effect (EC50) is > 10 µM and the inhibition at 10 µM turned out to be 48.7%.

For the compound `CN1CCN(c2cncc3[nH]c(-c4n[nH]c5ccc(-c6cncnc6)nc45)nc23)CC1` [Compound 251, 3-(7-(4-Methylpiperazin-1-yl)-3H-imidazo[4,5-c]pyridin-2-yl)-5-(pyrimidin-5-yl)-1H-pyrazolo[4,3-b]pyridine], the EC50 is > 10 µM and the inhibition at 10 µM turned out to be 44.6%.

As to `O=C(Nc1cncc(-c2ccc3[nH]nc(-c4nc5c(-c6ccsc6)cncc5[nH]4)c3n2)c1)c1ccccc1` [Compound 263, N-(5-(3-(7-(Thiophen-3-yl)-3H-imidazo[4,5-c]pyridin-2-yl)-1H-pyrazolo[4,3-b]pyridin-5-yl)pyridin-3-yl)benzamide], the concentration giving a half-maximal response (EC50) is > 10 µM and the inhibition at 10 µM was 0%.

Turning to `c1csc(-c2cncc3[nH]c(-c4n[nH]c5ccc(-c6ccncc6)nc45)nc23)c1` [Compound 326, 5-(Pyridin-4-yl)-3-(7-(thiophen-2-yl)-3H-imidazo[4,5-c]pyridin-2-yl)-1H-pyrazolo[4,3-b]pyridine], the EC50 was > 10 µM and the inhibition at 10 µM came out at 26.6%.

As to `O=C(Nc1cncc(-c2ccc3[nH]nc(-c4nc5c(-c6cccs6)cncc5[nH]4)c3n2)c1)C1CC1` [Compound 328, N-(5-(3-(7-(Thiophen-2-yl)-3H-imidazo[4,5-c]pyridin-2-yl)-1H-pyrazolo[4,3-b]pyridin-5-yl)pyridin-3-yl)cyclopropanecarboxamide], the 50% effective concentration (EC50) is > 10 µM and the inhibition at 10 µM was found to be 0%.

`Cc1ccc(-c2cncc3[nH]c(-c4n[nH]c5ccc(-c6cncc(NC(=O)C7CCCC7)c6)nc45)nc23)s1` [Compound 386, N-(5-(3-(7-(5-Methylthiophen-2-yl)-3H-imidazo[4,5-c]pyridin-2-yl)-1H-pyrazolo[4,3-b]pyridin-5-yl)pyridin-3-yl)cyclopentanecarboxamide]: the EC50 was > 10 µM and the inhibition at 10 µM was determined as 0%.

As to `CS(=O)(=O)NCc1cc(F)cc(-c2cncc3[nH]c(-c4n[nH]c5ccc(-c6cncc(NC(=O)c7ccccc7)c6)nc45)nc23)c1` [Compound 459, N-(5-(3-(7-(3-Fluoro-5-(methylsulfonamidomethyl)phenyl)-3H-imidazo[4,5-c]pyridin-2-yl)-1H-pyrazolo[4,3-b]pyridin-5-yl)pyridin-3-yl)benzamide], the 50% effective concentration (EC50) was > 10 µM and the inhibition at 10 µM came to 0%.

The compound `CS(=O)(=O)NCc1cc(F)cc(-c2cncc3[nH]c(-c4n[nH]c5ccc(-c6cncc(CNCc7ccccc7)c6)nc45)nc23)c1` [Compound 472, N-(3-(2-(5-(5-((Benzylamino)methyl)pyridin-3-yl)-1H-pyrazolo[4,3-b]pyridin-3-yl)-3H-imidazo[4,5-c]pyridin-7-yl)-5-fluorobenzyl)methanesulfonamide] showed a concentration for a half-maximal effect (EC50) of 7.27 µM.

The compound `CS(=O)(=O)NCc1cc(F)cc(-c2cncc3[nH]c(-c4n[nH]c5ccc(-c6cncnc6)nc45)nc23)c1` [Compound 475, N-(3-Fluoro-5-(2-(5-(pyrimidin-5-yl)-1H-pyrazolo[4,3-b]pyridin-3-yl)-3H-imidazo[4,5-c]pyridin-7-yl)benzyl)methanesulfonamide] yielded an EC50 of 2.44 µM.

`c1cncc(-c2cncc3[nH]c(-c4n[nH]c5ccc(-c6cncc(OC7CCCCC7)c6)nc45)nc23)c1` [Compound 531, 5-(5-(Cyclohexyloxy)pyridin-3-yl)-3-(7-(pyridin-3-yl)-3H-imidazo[4,5-c]pyridin-2-yl)-1H-pyrazolo[4,3-b]pyridine] yielded an EC50 of 3.2 µM.

Consider `Oc1cncc(-c2ccc3[nH]nc(-c4nc5c(-c6cccnc6)cncc5[nH]4)c3n2)c1` [Compound 537, 5-(3-(7-(Pyridin-3-yl)-3H-imidazo[4,5-c]pyridin-2-yl)-1H-pyrazolo[4,3-b]pyridin-5-yl)pyridin-3-ol], for which the concentration for a half-maximal effect (EC50) is > 10 µM and the inhibition at 10 µM was determined as 49.8%.

`c1cc(-c2cncc3[nH]c(-c4n[nH]c5ccc(-c6cncc(OC7CCNCC7)c6)nc45)nc23)ccn1` [Compound 548, 5-(5-(Piperidin-4-yloxy)pyridin-3-yl)-3-(7-(pyridin-4-yl)-3H-imidazo[4,5-c]pyridin-2-yl)-1H-pyrazolo[4,3-b]pyridine] showed an EC50 of 2.47 µM.

Consider `c1ccc(COc2cncc(-c3ccc4[nH]nc(-c5nc6c(-c7ccncc7)cncc6[nH]5)c4n3)c2)cc1` [Compound 554, 5-(5-(Benzyloxy)pyridin-3-yl)-3-(7-(pyridin-4-yl)-3H-imidazo[4,5-c]pyridin-2-yl)-1H-pyrazolo[4,3-b]pyridine], for which the EC50 worked out at 1.03 µM.

In the case of `c1cc(-c2cncc3[nH]c(-c4n[nH]c5ccc(-c6cnccn6)nc45)nc23)ccn1` [Compound 556, 5-(Pyrazin-2-yl)-3-(7-(pyridin-4-yl)-3H-imidazo[4,5-c]pyridin-2-yl)-1H-pyrazolo[4,3-b]pyridine], a half-maximal effect (EC50) was put at 0.014 µM.
